Inhibition and Ki data for 13 molecules are collected here from ChEMBL document CHEMBL2417405, “Synthesis, enzyme kinetics and computational evaluation of N-(β-D-glucopyranosyl) oxadiazolecarboxamides as glycogen phosphorylase inhibitors” (Bioorg Med Chem, 2013).

Each structure is given as a SMILES string. Calls of active or inactive are those of the source. The rule behind the calls is not given here.

In one assay the target is T1, Glycogen phosphorylase, muscle form (Oryctolagus cuniculus) (UniProt P00489).
T1 sequence (whole entry): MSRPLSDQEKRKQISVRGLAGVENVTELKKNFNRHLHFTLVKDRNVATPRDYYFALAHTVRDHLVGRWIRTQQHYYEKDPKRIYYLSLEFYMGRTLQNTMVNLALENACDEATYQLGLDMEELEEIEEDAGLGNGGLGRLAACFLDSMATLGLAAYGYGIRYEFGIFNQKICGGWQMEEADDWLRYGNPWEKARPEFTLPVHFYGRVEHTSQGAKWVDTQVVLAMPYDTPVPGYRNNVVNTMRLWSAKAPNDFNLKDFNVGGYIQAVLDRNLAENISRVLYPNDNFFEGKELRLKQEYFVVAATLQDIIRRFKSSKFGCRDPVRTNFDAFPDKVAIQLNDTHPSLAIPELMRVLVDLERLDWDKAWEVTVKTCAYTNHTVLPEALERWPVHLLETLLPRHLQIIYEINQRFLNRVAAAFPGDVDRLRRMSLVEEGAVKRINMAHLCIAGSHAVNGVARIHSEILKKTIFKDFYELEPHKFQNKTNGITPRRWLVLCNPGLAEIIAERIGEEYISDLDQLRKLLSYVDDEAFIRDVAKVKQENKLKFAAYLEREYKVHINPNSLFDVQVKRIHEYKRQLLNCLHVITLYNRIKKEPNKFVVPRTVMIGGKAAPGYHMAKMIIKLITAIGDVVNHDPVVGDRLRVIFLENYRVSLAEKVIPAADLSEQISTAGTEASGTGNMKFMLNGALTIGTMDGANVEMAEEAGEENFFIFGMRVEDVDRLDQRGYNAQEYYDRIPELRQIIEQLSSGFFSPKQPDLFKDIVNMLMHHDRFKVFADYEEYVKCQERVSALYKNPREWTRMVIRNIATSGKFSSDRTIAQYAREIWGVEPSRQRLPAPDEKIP
The experiment in a line: Inhibition of rabbit skeletal muscle glycogen phosphorylase bat 625 uM by Lineweaver-Burk plot method.
Consider `O=C(N[C@@H]1O[C@H](CO)[C@@H](O)[C@H](O)[C@H]1O)c1cn(-c2ccc3ccccc3c2)nn1`, for which the inhibition entry is “inactive”.
Regarding `O=C(N[C@@H]1O[C@H](CO)[C@@H](O)[C@H](O)[C@H]1O)c1noc(-c2ccc3ccccc3c2)n1`, the inhibition result was “inactive”.
For the molecule `O=C(N[C@@H]1O[C@H](CO)[C@@H](O)[C@H](O)[C@H]1O)c1nc(-c2ccc3ccccc3c2)no1`, the inhibition result is “inactive”.
`O=C(N[C@@H]1O[C@H](CO)[C@@H](O)[C@H](O)[C@H]1O)c1cc(-c2ccc3ccccc3c2)no1`: the inhibition entry was “inactive”.

A further assay deals with T2, Glycogen phosphorylase, muscle form (Oryctolagus cuniculus, UniProt P00489).
T2 sequence (P00489 whole entry): T1 sequence (whole entry)
Description: Inhibition of rabbit skeletal muscle glycogen phosphorylase b by Lineweaver-Burk plot method
A word on the Ki: it is a measure of affinity in units of concentration, obtained from inhibition or displacement. Lower therefore signals a stronger hold on the target. In turn, `O=C(N[C@@H]1O[C@H](CO)[C@@H](O)[C@H](O)[C@H]1O)c1cc(-c2ccccc2)no1` yielded a Ki of 172 µM.
Turning to `O=C(N[C@@H]1O[C@H](CO)[C@@H](O)[C@H](O)[C@H]1O)c1cn(-c2ccccc2)nn1`, the affinity corresponds to a Ki of 75 µM.
`O=C(N[C@@H]1O[C@H](CO)[C@@H](O)[C@H](O)[C@H]1O)c1nc(-c2ccccc2)no1` came in with a Ki of 104 µM. The Ki values of the last two molecules are within 1.5-fold of each other.
With `O=C(N[C@@H]1O[C@H](CO)[C@@H](O)[C@H](O)[C@H]1O)c1nnc(-c2cccc3ccccc23)o1`, affinity was put at a Ki of 172 µM.
`O=C(N[C@@H]1O[C@H](CO)[C@@H](O)[C@H](O)[C@H]1O)c1nnc(-c2ccc3ccccc3c2)o1` yielded a Ki of 30 µM.
The molecule `O=C(N[C@@H]1O[C@H](CO)[C@@H](O)[C@H](O)[C@H]1O)c1noc(-c2cccc3ccccc23)n1` showed a Ki of 33 µM.
As to `O=C(N[C@@H]1O[C@H](CO)[C@@H](O)[C@H](O)[C@H]1O)c1noc(-c2ccccc2)n1`, the Ki is 136 µM.
As to `O=C(N[C@@H]1O[C@H](CO)[C@@H](O)[C@H](O)[C@H]1O)c1nnc(-c2ccccc2)o1`, the affinity, expressed as Ki, was 545 µM. Against the preceding molecule, the Ki is about 4-fold higher.
Turning to `O=C(N[C@@H]1O[C@H](CO)[C@@H](O)[C@H](O)[C@H]1O)c1nc(-c2cccc3ccccc23)no1`, the inhibition constant (Ki) is 145 µM.
